Measured values: patent US20100279944A1, “SUPPRESSION AND TREATMENT OF NEUROPATHIC PAIN” (priority 2006, published 2010)
Where a SMILES comes first, the peptide text is derived from it. [ ]: non-standard residue; d: D form.

Columns and labels:
[1] = Recovery, side effects and body weight of SCI rats after peptide treatment; format: in vivo, rat; conditions: 200 μg/kg i.v., six bolus doses after SCI
Procedure: Seventeen individually housed male Wistar rats (Charles River, St. Constant, Quebec, 250-320 g) were used to assess mechanical allodynia and hind-limb locomotion. Males were used in these studies to avoid the confounding variable of hormonal cycles on the assessments of neuropathic pain. All protocols were carried out in accordance with the guidelines set forth by the Canadian Guide to Care and Use of Experimental Animals. All experiments conformed to international guidelines on the ethical use of animals and minimized the number of animals used and their suffering. All rats received pre-operative medication and halothane anesthesia for surgical interventions to accomplish clip compression spinal cord injury (SCI), as described previously (Gris et al., (2004), J. Neurosci., v. 24, pp. 4043-4051; Weaver et al., (2001), J. Neurotrauma, v. 18, pp. 1107-1119). A dorsal laminectomy was performed to expose the 12th thoracic (T12) spinal cord segment. The cord was injured by clip compression for 60 sec without disrupting the dura or adjacent dorsal roots. A modified aneurysm clip (Toronto Western Research Institute, University of Toronto, Toronto, Ontario, Canada) calibrated at 35 g was used at the T12 segment to produce a moderate injury. The rats received postoperative care as described previously (Gris, supra). […]

[2] = Mathison et al., 1997; cited from earlier work

| Compound | side effects of treatment [1] | lowest dose showing biological effects [2] [μg/kg] |
| --- | --- | --- |
| N[C@H](Cc1ccccc1)C(=O)N[C@H](CC(=O)O)C(=O)NCC(=O)O [fdG, D-phenylalanine-D-aspartic acid-Glycine] (H-[dF]-[dD]-Gly-OH) | No overt side effects | – |
| SGP-T: submandibular gland peptide T; amino acid sequence TDIFEGG | – | 1 |
